Here are results for twelve compounds from PubChem BioAssay (NCI).

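Step 1: Grow cells in 96-well plates. Step 2: Expose to compound for 48 hours at 5 concentrations. Step 3: Interpolate endpoints linearly; if unreached, use highest concentration. Here, GI50 denotes the concentration required for 50% inhibition of growth. TGI is the concentration that stops growth completely.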 A value given as a limit tells only on which side of the number the result lay.

Some test systems named below: M14 melanoma; HL-60(TB) leukemia; SNB-78 CNS; SK-MEL-2 melanoma; HCT-116 colon; KM12 colon; MCF7 breast; PC-3 prostate; LXFL 529 NSCLC; KM20L2 colon.
Assay in all cases: NCI anticancer screen, dose series, 48 h

With `CN(C)C(=S)/N=c1\ssc(=Nc2ccccc2)n1-c1ccccc1`, the TGI was 44.2 µM in the experiment with M14 melanoma, above 100 µM with HL-60(TB) leukemia, 79.7 µM in the experiment on SNB-78 CNS and above 100 µM in the experiment with SK-MEL-2 melanoma.
Take `CCCCS(=O)(=O)c1cc(Nc2ccc(O)c3c2C(=O)c2ccccc2C3=O)ccc1C`: the GI50 in the experiment on HCT-116 colon is above 100 µM; with KM12 colon, above 100 µM; in the experiment with MCF7 breast, 1.25 µM; with M14 melanoma, 2.87 µM; with HL-60(TB) leukemia, above 100 µM; in the experiment with SK-MEL-2 melanoma, 26.5 µM. For the same compound, the GI50 in the experiment with PC-3 prostate was above 100 µM. Also, the TGI in the experiment with HCT-116 colon, in the experiment with KM12 colon, in the experiment with MCF7 breast, with M14 melanoma, in the experiment on HL-60(TB) leukemia and with SK-MEL-2 melanoma was above 100 µM each time. The TGI in the experiment with PC-3 prostate was above 100 µM.
As to `C=C(c1ccccc1)c1cc2c(=O)[nH]ccc2n1C`, the TGI is above 100 µM in the experiment on KM12 colon; above 100 µM with LXFL 529 NSCLC; above 100 µM in the experiment on M14 melanoma; 38.1 µM in the experiment on HL-60(TB) leukemia; above 100 µM in the experiment with SNB-78 CNS; 59.7 µM in the experiment on KM20L2 colon. In the experiment with SK-MEL-2 melanoma, this compound yielded a TGI of 58.3 µM.
As to `OC[C@H]1N[C@H](CO)[C@@H](O)[C@H]1O`, the TGI in the experiment with HCT-116 colon, in the experiment on KM12 colon, with MCF7 breast, in the experiment on M14 melanoma, in the experiment with HL-60(TB) leukemia and in the experiment on SK-MEL-2 melanoma was above 100 µM each time. The compound also yielded a TGI with PC-3 prostate above 100 µM.
With `CC(C)(O)c1cc(Nc2cc(Oc3cn(C4CC4)nc3C3CCOCC3)ccn2)ccn1`, the GI50 is 36.2 µM in the experiment with HCT-116 colon; above 100 µM in the experiment with KM12 colon; 35.3 µM in the experiment on MCF7 breast; 89.1 µM in the experiment with M14 melanoma; 27.6 µM in the experiment with HL-60(TB) leukemia; above 100 µM in the experiment on SK-MEL-2 melanoma. The GI50 in the experiment on PC-3 prostate was 88.1 µM. The TGI in the experiment on HCT-116 colon, with KM12 colon, with MCF7 breast, in the experiment with M14 melanoma, in the experiment on HL-60(TB) leukemia and in the experiment with SK-MEL-2 melanoma was above 100 µM in each case. In the experiment with PC-3 prostate, this compound had a TGI above 100 µM.
For the compound `COc1cc(C=NCC(=O)CSC(c2ccccc2)c2ccccc2)ccc1O`, the GI50 is 8.69 µM in the experiment with HCT-116 colon; 11.9 µM in the experiment with KM12 colon; 21.2 µM in the experiment with MCF7 breast; 13.2 µM with M14 melanoma; 11.4 µM in the experiment on HL-60(TB) leukemia; 14.9 µM with SK-MEL-2 melanoma. In addition, in the experiment with PC-3 prostate, the GI50 was 9.26 µM. Besides, the TGI is 21 µM in the experiment on HCT-116 colon; 26.3 µM with KM12 colon; above 100 µM with MCF7 breast; 25.9 µM with M14 melanoma; 27.6 µM with HL-60(TB) leukemia; 28.7 µM with SK-MEL-2 melanoma. Further, in the experiment on PC-3 prostate, the TGI came to 28.2 µM.
For `Nc1ccc(C(=O)N/C(=C\c2ccc3c(c2)OCO3)c2nc3ccccc3s2)cc1`, the TGI in the experiment with KM12 colon was 28 µM; with LXFL 529 NSCLC, 22.4 µM; in the experiment with M14 melanoma, 23.9 µM; in the experiment with SNB-78 CNS, 30.5 µM; in the experiment on KM20L2 colon, 28.7 µM; with SK-MEL-2 melanoma, 28 µM.
For `COC(=O)CCC(NC(=S)N/N=C(\C)c1cccs1)C(=O)OC` (centres undefined), the TGI with HCT-116 colon, in the experiment with KM12 colon, in the experiment on LXFL 529 NSCLC, in the experiment on M14 melanoma, with SNB-78 CNS and in the experiment with KM20L2 colon was above 100 µM each time. This compound also returned a TGI in the experiment on SK-MEL-2 melanoma above 100 µM.
Take `CC(C)(C)OC(=O)NCCCCCCCCCCCCn1c2c(c3ccccc3c1=O)C(=O)c1ccccc1-2`: the GI50 in the experiment on HCT-116 colon was above 100 µM; in the experiment on KM12 colon, above 100 µM; in the experiment on MCF7 breast, above 100 µM; with M14 melanoma, above 100 µM; in the experiment with HL-60(TB) leukemia it was above 100 µM; with SK-MEL-2 melanoma, 18.1 µM. Also, the GI50 in the experiment with PC-3 prostate is above 100 µM. For the same compound, the TGI in the experiment with HCT-116 colon is above 100 µM; in the experiment on KM12 colon it was above 100 µM; in the experiment with MCF7 breast, above 100 µM; in the experiment with M14 melanoma, above 100 µM; in the experiment on HL-60(TB) leukemia, above 100 µM; in the experiment with SK-MEL-2 melanoma, 38.2 µM. In the experiment on PC-3 prostate, this compound gave a TGI above 100 µM.
For the compound `C=C(CN1CCc2ccccc2C1)c1ccc(CCCC(=O)Nc2ccccc2N)cc1`, the GI50 was 12.8 µM with HCT-116 colon; 11.1 µM with KM12 colon; 8.45 µM in the experiment with MCF7 breast; 15.8 µM in the experiment with M14 melanoma; 7.13 µM in the experiment with HL-60(TB) leukemia; 14.5 µM in the experiment with SK-MEL-2 melanoma. Moreover, in the experiment on PC-3 prostate, the GI50 was 10.5 µM. Also, the TGI was 33.3 µM in the experiment on HCT-116 colon; 27.2 µM in the experiment with KM12 colon; above 100 µM in the experiment with MCF7 breast; 33 µM with M14 melanoma; 31.3 µM in the experiment on HL-60(TB) leukemia; 31.8 µM with SK-MEL-2 melanoma. For the same compound, the TGI with PC-3 prostate turned out to be 30.3 µM.
Take `COC(=O)c1c(C(=O)O)c(-c2ccccc2)c(-c2ccccc2)c(-c2ccccc2)c1-c1ccccc1`: the GI50 with HCT-116 colon is 77.9 µM; in the experiment on KM12 colon it was above 100 µM; with MCF7 breast, above 100 µM; in the experiment with M14 melanoma, above 100 µM; in the experiment on HL-60(TB) leukemia, above 100 µM; in the experiment with SK-MEL-2 melanoma, above 100 µM. Further, the GI50 with PC-3 prostate is above 100 µM. Also, the TGI with HCT-116 colon, with KM12 colon, with MCF7 breast, in the experiment with M14 melanoma, with HL-60(TB) leukemia and with SK-MEL-2 melanoma was above 100 µM each time. In addition, the TGI with PC-3 prostate was above 100 µM.
With `CN(CCOc1ccc(NS(C)(=O)=O)cc1)CCc1ccc(NS(C)(=O)=O)cc1`, the GI50 in the experiment with HCT-116 colon, in the experiment with KM12 colon, in the experiment on MCF7 breast, with M14 melanoma, with HL-60(TB) leukemia and in the experiment with SK-MEL-2 melanoma was above 100 µM each time. The GI50 with PC-3 prostate was above 100 µM. The TGI with HCT-116 colon, in the experiment on KM12 colon, in the experiment on MCF7 breast, with M14 melanoma, in the experiment with HL-60(TB) leukemia and in the experiment on SK-MEL-2 melanoma was above 100 µM each time. In addition, the TGI with PC-3 prostate was above 100 µM.
